ChEMBL document CHEMBL3774317, “Design and synthesis of novel tamoxifen analogues that avoid CYP2D6 metabolism” (Eur J Med Chem, 2016)

Tests used:
Format in all cases: functional
SK-MEL-28 [1] = assay: Cytotoxicity against human SK-MEL-28 cells assessed as cell growth at 50 uM after 48 hrs by SRB assay; conditions: SK-MEL-28, 48 h, read-out: Activity
[2] = Cytotoxicity against human RPMI8226 cells assessed as cell growth at 5 uM after 48 hrs by SRB assay; conditions: RPMI-8226, 48 h, read-out: Activity
[3] = Cytotoxicity against human UO31 cells assessed as cell growth at 0.5 uM after 48 hrs by SRB assay; conditions: UO-31, 48 h, read-out: Activity
U-251 [4] = assay: Cytotoxicity against human U251 cells assessed as cell growth at 50 uM after 48 hrs by SRB assay; conditions: U-251, 48 h, read-out: Activity
CCRF-CEM [5] = assay: Cytotoxicity against human CCRF-CEM cells assessed as cell growth at 0.5 uM after 48 hrs by SRB assay; conditions: read-out: Activity
SK-MEL-28 [6] = assay: Cytotoxicity against human SK-MEL-28 cells assessed as cell growth at 5 uM after 48 hrs by SRB assay; conditions: SK-MEL-28, 48 h, read-out: Activity
[7] = Cytotoxicity against human OVCAR3 cells assessed as cell growth at 5 uM after 48 hrs by SRB assay; conditions: OVCAR-3, 48 h, read-out: Activity
[8] = Cytotoxicity against human LOXIMVI cells assessed as cell growth at 50 uM after 48 hrs by SRB assay; conditions: LOX IMVI, read-out: Activity
NCI-H226 = assay: Cytotoxicity against human NCI-H226 cells assessed as cell growth at 0.5 uM after 48 hrs by SRB assay; conditions: NCI-H226, 48 h, read-out: Activity
[9] = Cytotoxicity against human HOP62 cells assessed as cell growth at 50 uM after 48 hrs by SRB assay; conditions: HOP-62, 48 h, read-out: Activity
HT-29 [10] = assay: Cytotoxicity against human HT-29 cells assessed as cell growth at 5 nM after 48 hrs by SRB assay; conditions: HT-29, 48 h, read-out: Activity
[11] = Cytotoxicity against human SNB75 cells assessed as cell growth at 5 nM after 48 hrs by SRB assay; conditions: SNB-75, 48 h, read-out: Activity
[12] = Cytotoxicity against human SF268 cells assessed as cell growth at 0.5 uM after 48 hrs by SRB assay; conditions: SF-268, 48 h, read-out: Activity
[13] = Cytotoxicity against human DU145 cells assessed as cell growth at 50 uM after 48 hrs by SRB assay; conditions: DU-145, 48 h, read-out: Activity
[14] = Cytotoxicity against human RPMI8226 cells assessed as cell growth at 5 nM after 48 hrs by SRB assay; conditions: RPMI-8226, 48 h, read-out: Activity
[15] = Cytotoxicity against human PC3 cells assessed as cell growth at 5 nM after 48 hrs by SRB assay; conditions: PC-3, 48 h, read-out: Activity
CCRF-CEM [16] = assay: Cytotoxicity against human CCRF-CEM cells assessed as cell growth at 50 uM after 48 hrs by SRB assay; conditions: read-out: Activity
[17] = Cytotoxicity against human OVCAR5 cells assessed as cell growth at 50 uM after 48 hrs by SRB assay; conditions: OVCAR-5, 48 h, read-out: Activity
[18] = Cytotoxicity against human BT549 cells assessed as cell growth at 50 nM after 48 hrs by SRB assay; conditions: BT-549, 48 h, read-out: Activity
SN12C = assay: Cytotoxicity against human SN12C cells assessed as cell growth at 0.5 uM after 48 hrs by SRB assay; conditions: read-out: Activity
T47D = assay: Cytotoxicity against human T47D cells assessed as cell growth at 50 nM after 48 hrs by SRB assay; conditions: read-out: Activity
Malme-3M = assay: Cytotoxicity against human MALME-3M cells assessed as cell growth at 50 uM after 48 hrs by SRB assay; conditions: read-out: Activity
[19] = Cytotoxicity against human SNB19 cells assessed as cell growth at 5 nM after 48 hrs by SRB assay; conditions: SNB-19, 48 h, read-out: Activity
SK-MEL-2 = assay: Cytotoxicity against human SK-MEL-2 cells assessed as cell growth at 50 uM after 48 hrs by SRB assay; conditions: SK-MEL-2, 48 h, read-out: Activity
EKVX = assay: Cytotoxicity against human EKVX cells assessed as cell growth at 5 uM after 48 hrs by SRB assay; conditions: read-out: Activity
[20] = Cytotoxicity against human UACC257 cells assessed as cell growth at 10^-7 M after 48 hrs by SRB assay; conditions: UACC-257, 48 h, read-out: Activity
[21] = Cytotoxicity against human UACC62 cells assessed as cell growth at 10^-6 M after 48 hrs by SRB assay; conditions: UACC-62, 48 h, read-out: Activity
SK-MEL-5 = assay: Cytotoxicity against human SK-MEL-5 cells assessed as cell growth at 10^-7 M after 48 hrs by SRB assay; conditions: SK-MEL-5, 48 h, read-out: Activity
[22] = Cytotoxicity against human HOP92 cells assessed as cell growth at 10^-5 M after 48 hrs by SRB assay; conditions: HOP-92, 48 h, read-out: Activity
[23] = Cytotoxicity against human SF268 cells assessed as cell growth at 10^-6 M after 48 hrs by SRB assay; conditions: SF-268, 48 h, read-out: Activity
SK-MEL-28 [24] = assay: Cytotoxicity against human SK-MEL-28 cells assessed as cell growth at 10^-6 M after 48 hrs by SRB assay; conditions: SK-MEL-28, 48 h, read-out: Activity
[25] = Cytotoxicity against human OVCAR8 cells assessed as cell growth at 10^-4 M after 48 hrs by SRB assay; conditions: OVCAR-8, 48 h, read-out: Activity
SR = assay: Cytotoxicity against human SR cells assessed as cell growth at 10^-6 M after 48 hrs by SRB assay; conditions: read-out: Activity
HT-29 [26] = assay: Cytotoxicity against human HT-29 cells assessed as cell growth at 10^-7 M after 48 hrs by SRB assay; conditions: HT-29, 48 h, read-out: Activity
MDA-MB-231 = assay: Cytotoxicity against human MDA-MB-231 cells assessed as cell growth at 10^-6 M after 48 hrs by SRB assay; conditions: MDA-MB-231, 48 h, read-out: Activity
[27] = Cytotoxicity against human LOXIMVI cells assessed as cell growth at 10^-4 M after 48 hrs by SRB assay; conditions: LOX IMVI, read-out: Activity
[28] = Cytotoxicity against human MOLT4 cells assessed as cell growth at 10^-7 M after 48 hrs by SRB assay; conditions: MOLT-4, 48 h, read-out: Activity
[29] = Cytotoxicity against human SNB75 cells assessed as cell growth at 10^-4 M after 48 hrs by SRB assay; conditions: SNB-75, 48 h, read-out: Activity
[30] = Cytotoxicity against human OVCAR5 cells assessed as cell growth at 10^-4 M after 48 hrs by SRB assay; conditions: OVCAR-5, 48 h, read-out: Activity
[31] = Cytotoxicity against human Caki1 cells assessed as cell growth at 10^-6 M after 48 hrs by SRB assay; conditions: CAKI-1, 48 h, read-out: Activity
U-251 [32] = assay: Cytotoxicity against human U251 cells assessed as cell growth at 10^-4 M after 48 hrs by SRB assay; conditions: U-251, 48 h, read-out: Activity
[33] = Cytotoxicity against human RPMI8226 cells assessed as cell growth at 10^-7 M after 48 hrs by SRB assay; conditions: RPMI-8226, 48 h, read-out: Activity

Q: Which growth at 50 µM (SK-MEL-28 [1]) does the source give for `CCCCCCCCCC(=O)Oc1ccc(/C(=C(/C)c2ccccc2)c2ccc(OCCN3CCCC3)cc2)cc1` here?
A: -95%

Q: What about the growth at 5 µM [2] of the same compound?
A: 86%

Q: And the growth at 0.5 µM [3]?
A: 61%

Q: And the growth at 50 µM (U-251 [4])?
A: -89%

Q: And the growth at 0.5 µM (CCRF-CEM [5])?
A: 76%

Q: What about the growth at 5 µM (SK-MEL-28 [6]) of the same compound?
A: 89%

Q: What about the growth at 5 µM [7] of the same compound?
A: 86%

Q: And the growth at 50 µM [8]?
A: -100%

Q: And the growth at 0.5 µM (NCI-H226)?
A: 100%

Q: And the growth at 50 µM [9]?
A: -78%

Q: And the growth at 0.005 µM (HT-29 [10])?
A: 101%

Q: And the growth at 0.005 µM [11]?
A: 88%

Q: What about the growth at 0.5 µM [12] of the same compound?
A: 73%

Q: And the growth at 50 µM [13]?
A: -99%

Q: What about the growth at 0.005 µM [14] of the same compound?
A: 99%

Q: What about the growth at 0.005 µM [15] of the same compound?
A: 100%

Q: And the growth at 50 µM (CCRF-CEM [16])?
A: -47%

Q: What about the growth at 50 µM [17] of the same compound?
A: -84%

Q: And the growth at 0.05 µM [18]?
A: 92%

Q: And the growth at 0.5 µM (SN12C)?
A: 88%

Q: What about the growth at 0.05 µM (T47D) of the same compound?
A: 62%

Q: And the growth at 50 µM (Malme-3M)?
A: -82%

Q: What about the growth at 0.005 µM [19] of the same compound?
A: 98%

Q: And the growth at 50 µM (SK-MEL-2)?
A: -79%

Q: What about the growth at 5 µM (EKVX) of the same compound?
A: 74%

Q: What does the source list for `C/C(=C(/c1ccc(O)cc1)c1ccc(OCCN2CCCC2)cc1)c1ccccc1`?
A: growth at 0.1 µM [20]: 102%; growth at 1 µM [21]: 106%; growth at 0.1 µM (SK-MEL-5): 102%; growth at 10 µM [22]: -13%; growth at 1 µM [23]: 88%; growth at 1 µM (SK-MEL-28 [24]): 85%; growth at 100 µM [25]: -61%; growth at 1 µM (SR): 80%; growth at 0.1 µM (HT-29 [26]): 97%; growth at 1 µM (MDA-MB-231): 122%; growth at 100 µM [27]: -93%; growth at 0.1 µM [28]: 101%; growth at 100 µM [29]: -94%; growth at 100 µM [30]: -85%; growth at 1 µM [31]: 81%; growth at 100 µM (U-251 [32]): -98%; growth at 0.1 µM [33]: 103%
